For data set [1] the following is noted: 293.2 K; 101.33 kPa; Liquid; Vibrating tube method.
Data set [2] can be described thus: refractive index (Na D-line) (dimensionless). The following applies: 293.2 K; 101.33 kPa; Liquid; Standard Abbe refractometry.

Numbers after ± are expanded uncertainties.

Consider `CC(=O)c1ccccc1` [acetophenone], for which the mass density in data set [1] was 1027.9 ± 0.93 kg/m3. Moreover, the refractive index in data set [2] is given as 1.5361 ± 0.0006.
In the case of `CCCC(=O)O` [butanoic acid], the mass density in data set [1] came out at 957.8 ± 0.37 kg/m3. Further, the refractive index in data set [2] came to 1.3965 ± 0.0005.
The corresponding values for `CCOC(=O)CC(=O)OCC` [diethyl 1,3-propanedioate] are 1055.25 ± 0.98 kg/m3 and 1.4135 ± 0.0006.
As to `CCCC(=O)OCC` [ethyl butanoate], the mass density in data set [1] was 879.18 ± 0.73 kg/m3. In addition, in data set [2], the refractive index is recorded as 1.3918 ± 0.0006.
As for `CCCCCCCCC(=O)OCC` [ethyl nonanoate], the mass density in data set [1] turned out to be 866.3 ± 0.72 kg/m3. Besides, the refractive index in data set [2] was 1.4226 ± 0.0006.
On to `CCCCC(=O)OCC` [ethyl pentanoate], for which the mass density in data set [1] is on record as 877.15 ± 0.36 kg/m3. Also, in data set [2], the refractive index is given as 1.4125 ± 0.0005.
On the same counts, the results for `CCCCCCCCO` [octan-1-ol] are 825.95 ± 0.35 kg/m3 and 1.428 ± 0.0005.
The corresponding values for `CCCCN(CCCC)CCCC` [tributylamine] are 782.3 ± 0.61 kg/m3 and 1.4275 ± 0.0006.

By mass density is commonly meant mass per unit of volume. The refractive index is the speed of light in vacuum divided by its phase velocity in the sample.

Values taken from the NIST ThermoML archive (doi:10.1016/j.fluid.2014.10.043).
